In PubChem BioAssay (NCI):
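Briefly, cells in 96-well plates were exposed to five compound concentrations for 48 h, and endpoints were estimated by linear interpolation. GI50 marks 50% less growth. Definition used: TGI = concentration required for complete inhibition of growth.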

Legend:
Experiment in all cases: inhibition of tumour cell growth, NCI panel, 48 h
MDA-MB-231 breast = system: MDA-MB-231 breast
HT29 colon = system: HT29 colon
CCRF-CEM leukemia = system: CCRF-CEM leukemia
UACC-62 melanoma = system: UACC-62 melanoma
HCC-2998 colon = system: HCC-2998 colon
A549 NSCLC = system: A549 NSCLC
MOLT-4 leukemia = system: MOLT-4 leukemia
M14 melanoma = system: M14 melanoma
BT-549 breast = system: BT-549 breast
U251 CNS = system: U251 CNS
TK-10 renal = system: TK-10 renal
CAKI-1 renal = system: CAKI-1 renal
NCI-H460 lung = system: NCI-H460 lung
HCT-116 colon = system: HCT-116 colon
SK-OV-3 ovarian = system: SK-OV-3 ovarian
DU-145 prostate = system: DU-145 prostate
OVCAR-5 ovarian = system: OVCAR-5 ovarian
HS 578T breast = system: HS 578T breast
IGROV1 ovarian = system: IGROV1 ovarian
UACC-257 melanoma = system: UACC-257 melanoma
HOP-92 NSCLC = system: HOP-92 NSCLC
SK-MEL-28 melanoma = system: SK-MEL-28 melanoma
SNB-19 CNS = system: SNB-19 CNS
RPMI-8226 leukemia = system: RPMI-8226 leukemia
HL-60(TB) leukemia = system: HL-60(TB) leukemia
OVCAR-3 ovarian = system: OVCAR-3 ovarian
SF-268 CNS = system: SF-268 CNS
OVCAR-4 ovarian = system: OVCAR-4 ovarian
SW-620 colon = system: SW-620 colon
SNB-75 CNS = system: SNB-75 CNS
MDA-MB-435 = system: MDA-MB-435
NCI/ADR-RES ovarian = system: NCI/ADR-RES ovarian
ACHN renal = system: ACHN renal
LOX IMVI melanoma = system: LOX IMVI melanoma
SR leukemia = system: SR leukemia
HOP-62 NSCLC = system: HOP-62 NSCLC
EKVX NSCLC = system: EKVX NSCLC
SF-295 CNS = system: SF-295 CNS
SK-MEL-5 melanoma = system: SK-MEL-5 melanoma
UO-31 renal = system: UO-31 renal
SN12C renal = system: SN12C renal
KM12 colon = system: KM12 colon
NCI-H522 lung = system: NCI-H522 lung
COLO 205 colon = system: COLO 205 colon
MALME-3M melanoma = system: MALME-3M melanoma
PC-3 prostate = system: PC-3 prostate
T-47D breast = system: T-47D breast
786-0 renal = system: 786-0 renal
K-562 leukemia = system: K-562 leukemia
RXF 393 renal = system: RXF 393 renal
SK-MEL-2 melanoma = system: SK-MEL-2 melanoma
NCI-H23 lung = system: NCI-H23 lung
SF-539 CNS = system: SF-539 CNS
A498 renal = system: A498 renal
NCI-H226 lung = system: NCI-H226 lung
HCT-15 colon = system: HCT-15 colon
MCF7 breast = system: MCF7 breast
OVCAR-8 ovarian = system: OVCAR-8 ovarian

In the case of c1ccc2nc3c(cc2c1)Sc1cc2ccccc2[n+]2c1N3CC2, the GI50 (MDA-MB-231 breast) was 31.6 µM, the TGI (MDA-MB-231 breast) was greater than 100 µM and the GI50 (HT29 colon) was 33.8 µM. It also gave a TGI (HT29 colon) greater than 100 µM, a GI50 (CCRF-CEM leukemia) of 26.8 µM and a TGI (CCRF-CEM leukemia) greater than 100 µM. It also gave a GI50 (UACC-62 melanoma) of 13.5 µM, a TGI (UACC-62 melanoma) of 28.8 µM and a GI50 (HCC-2998 colon) of 18.5 µM. For the same compound, the TGI (HCC-2998 colon) was 64.3 µM, the GI50 (A549 NSCLC) was 11.9 µM and the TGI (A549 NSCLC) was greater than 100 µM. It also gave a GI50 (MOLT-4 leukemia) of 22.1 µM, a TGI (MOLT-4 leukemia) greater than 100 µM and a GI50 (M14 melanoma) of 16.2 µM. For the same compound, the TGI (M14 melanoma) was 45 µM, the GI50 (BT-549 breast) was 19.1 µM and the TGI (BT-549 breast) was greater than 100 µM. For the same compound, the GI50 (U251 CNS) was 24 µM, the TGI (U251 CNS) was greater than 100 µM and the GI50 (TK-10 renal) was 36.4 µM. It also gave a TGI (TK-10 renal) greater than 100 µM, a GI50 (CAKI-1 renal) of 64.5 µM and a TGI (CAKI-1 renal) greater than 100 µM. For the same compound, the GI50 (NCI-H460 lung) was 20.3 µM, the TGI (NCI-H460 lung) was 63.9 µM and the GI50 (HCT-116 colon) was 30.8 µM. For the same compound, the TGI (HCT-116 colon) was greater than 100 µM, the GI50 (SK-OV-3 ovarian) was greater than 100 µM and the TGI (SK-OV-3 ovarian) was greater than 100 µM. The GI50 (DU-145 prostate) was 53.9 µM, the TGI (DU-145 prostate) was greater than 100 µM and the GI50 (OVCAR-5 ovarian) was greater than 100 µM. It also gave a TGI (OVCAR-5 ovarian) greater than 100 µM, a GI50 (HS 578T breast) of 18.3 µM and a TGI (HS 578T breast) of 85.1 µM. It also gave a GI50 (IGROV1 ovarian) of 22.8 µM, a TGI (IGROV1 ovarian) greater than 100 µM and a GI50 (UACC-257 melanoma) of 11.6 µM. It also gave a TGI (UACC-257 melanoma) of 34.8 µM, a GI50 (HOP-92 NSCLC) of 27.9 µM and a TGI (HOP-92 NSCLC) greater than 100 µM. For the same compound, the GI50 (SK-MEL-28 melanoma) was 20.8 µM, the TGI (SK-MEL-28 melanoma) was 83.9 µM and the GI50 (SNB-19 CNS) was 19.7 µM. The TGI (SNB-19 CNS) was 91.9 µM, the GI50 (RPMI-8226 leukemia) was 15.6 µM and the TGI (RPMI-8226 leukemia) was greater than 100 µM. It also gave a GI50 (HL-60(TB) leukemia) of 32.5 µM, a TGI (HL-60(TB) leukemia) greater than 100 µM and a GI50 (OVCAR-3 ovarian) of 21.2 µM. It also gave a TGI (OVCAR-3 ovarian) greater than 100 µM, a GI50 (SF-268 CNS) of 23.6 µM and a TGI (SF-268 CNS) greater than 100 µM. The GI50 (OVCAR-4 ovarian) was 24.7 µM, the TGI (OVCAR-4 ovarian) was greater than 100 µM and the GI50 (SW-620 colon) was 32.5 µM. It also gave a TGI (SW-620 colon) greater than 100 µM, a GI50 (SNB-75 CNS) of 26.9 µM and a TGI (SNB-75 CNS) greater than 100 µM. For the same compound, the GI50 (MDA-MB-435) was 21.1 µM, the TGI (MDA-MB-435) was 65.7 µM and the GI50 (NCI/ADR-RES ovarian) was greater than 100 µM. For the same compound, the TGI (NCI/ADR-RES ovarian) was greater than 100 µM, the GI50 (ACHN renal) was greater than 100 µM and the TGI (ACHN renal) was greater than 100 µM. It also gave a GI50 (LOX IMVI melanoma) of 41.3 µM, a TGI (LOX IMVI melanoma) greater than 100 µM and a GI50 (SR leukemia) of 13.5 µM. For the same compound, the TGI (SR leukemia) was greater than 100 µM, the GI50 (HOP-62 NSCLC) was 20.8 µM and the TGI (HOP-62 NSCLC) was 78.1 µM. The GI50 (EKVX NSCLC) was 21 µM, the TGI (EKVX NSCLC) was greater than 100 µM and the GI50 (SF-295 CNS) was 65.7 µM. The TGI (SF-295 CNS) was greater than 100 µM, the GI50 (SK-MEL-5 melanoma) was 3.66 µM and the TGI (SK-MEL-5 melanoma) was 20 µM. It also gave a GI50 (UO-31 renal) greater than 100 µM, a TGI (UO-31 renal) greater than 100 µM and a GI50 (SN12C renal) of 21.5 µM. The TGI (SN12C renal) was greater than 100 µM, the GI50 (KM12 colon) was 11 µM and the TGI (KM12 colon) was 40.3 µM. It also gave a GI50 (NCI-H522 lung) of 26.7 µM, a TGI (NCI-H522 lung) greater than 100 µM and a GI50 (COLO 205 colon) of 3.57 µM. It also gave a TGI (COLO 205 colon) of 25.5 µM, a GI50 (MALME-3M melanoma) of 4.17 µM and a TGI (MALME-3M melanoma) of 23.3 µM. The GI50 (PC-3 prostate) was 27.4 µM, the TGI (PC-3 prostate) was greater than 100 µM and the GI50 (T-47D breast) was 15 µM. It also gave a TGI (T-47D breast) of 64.9 µM, a GI50 (786-0 renal) of 43 µM and a TGI (786-0 renal) greater than 100 µM. The GI50 (K-562 leukemia) was 14 µM, the TGI (K-562 leukemia) was greater than 100 µM and the GI50 (RXF 393 renal) was 13.7 µM. It also gave a TGI (RXF 393 renal) of 54.9 µM, a GI50 (SK-MEL-2 melanoma) of 17.6 µM and a TGI (SK-MEL-2 melanoma) of 43.9 µM. The GI50 (NCI-H23 lung) was 21.9 µM, the TGI (NCI-H23 lung) was greater than 100 µM and the GI50 (SF-539 CNS) was 35.9 µM. The TGI (SF-539 CNS) was greater than 100 µM, the GI50 (A498 renal) was 34.1 µM and the TGI (A498 renal) was greater than 100 µM. For the same compound, the GI50 (NCI-H226 lung) was 45 µM, the TGI (NCI-H226 lung) was greater than 100 µM and the GI50 (HCT-15 colon) was greater than 100 µM. The TGI (HCT-15 colon) was greater than 100 µM, the GI50 (MCF7 breast) was 8.67 µM and the TGI (MCF7 breast) was greater than 100 µM. For the same compound, the GI50 (OVCAR-8 ovarian) was 25.3 µM and the TGI (OVCAR-8 ovarian) was greater than 100 µM.
